# Results from US12049450B2, “Pyridyloxy-carboxylate derivative and preparation method therefor, herbicidal composition, and use” (Qingdao Kingagroot Chemical Compound Co., Ltd., priority 2018, dated 2024).
# What was measured:
# Experiment in all cases: Post-emergence test experiment (greenhouse pot, spray at 2-3 leaf stage)
# Type in all cases: in vivo
# Conditions in all cases: 1000 g/ha; post-emergence spray at 2-3 leaf stage; assessed after 3 weeks; fresh weight inhibition rate
# [1] = tested on: Abutilon theophrasti
# Method in brief: (§1)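 Activity graded levels 0-5 by fresh-weight inhibition (level 5 above 85%, level 0 below 5%), assessed 3 weeks after treatment. Plants grown in greenhouse pots were sprayed post-emergence at 2-3 leaves using acetone/tween-80 solutions with methyl oleate synergist (1.5 L/ha).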
# [2] = tested on: Monochoria vaginalis
# Method in brief: as §1
# [3] = tested on: Digitaria sanguinalis
# Method in brief: as §1
# [4] = tested on: Echinochloa crusgalli
# Method in brief: as §1
# [5] = tested on: Galium spurium
# Method in brief: as §1
Compound,Activity level (growth inhibition rate) Abutilon theophrasti [1],Activity level (growth inhibition rate) Monochoria Vaginalis [2],Activity level (growth inhibition rate) Digitaria sanguinalis [3],Activity level (growth inhibition rate) Echinochloa crusgalli [4],Activity level (growth inhibition rate) Galium spurium [5]
CC(Oc1nc(F)c(Cl)c(N)c1Cl)C(=O)OCc1ccc2nccnc2c1 (stereo not shown) [Compound 186],5 (Level 5: the growth inhibition rate is greater than 85%),5 (Level 5: the growth inhibition rate is greater than 85%),5 (Level 5: the growth inhibition rate is greater than 85%),5 (Level 5: the growth inhibition rate is greater than 85%),5 (Level 5: the growth inhibition rate is greater than 85%)
CC(Oc1nc(F)c(Cl)c(N)c1Cl)C(=O)OCCc1cccc2cnncc12 (stereo not shown) [Compound 187],5 (Level 5: the growth inhibition rate is greater than 85%),5 (Level 5: the growth inhibition rate is greater than 85%),5 (Level 5: the growth inhibition rate is greater than 85%),5 (Level 5: the growth inhibition rate is greater than 85%),5 (Level 5: the growth inhibition rate is greater than 85%)
CC(Oc1nc(F)c(Cl)c(N)c1Cl)C(=O)SCc1ccc2nnccc2c1 (stereo not shown) [Compound 188],5 (Level 5: the growth inhibition rate is greater than 85%),5 (Level 5: the growth inhibition rate is greater than 85%),5 (Level 5: the growth inhibition rate is greater than 85%),5 (Level 5: the growth inhibition rate is greater than 85%),5 (Level 5: the growth inhibition rate is greater than 85%)
CC(Oc1nc(F)c(Cl)c(N)c1Cl)C(=O)OCc1ccc2c(c1)OCCO2 (stereo not shown) [Compound 189],5 (Level 5: the growth inhibition rate is greater than 85%),5 (Level 5: the growth inhibition rate is greater than 85%),5 (Level 5: the growth inhibition rate is greater than 85%),5 (Level 5: the growth inhibition rate is greater than 85%),5 (Level 5: the growth inhibition rate is greater than 85%)
CNc1c(Cl)c(F)nc(OC(C)C(=O)OCc2ccccc2)c1Cl (stereo not shown) [Compound 190],5 (Level 5: the growth inhibition rate is greater than 85%),5 (Level 5: the growth inhibition rate is greater than 85%),5 (Level 5: the growth inhibition rate is greater than 85%),5 (Level 5: the growth inhibition rate is greater than 85%),5 (Level 5: the growth inhibition rate is greater than 85%)
CCNc1c(Cl)c(F)nc(OC(C)C(=O)SCc2ccccc2)c1Cl (stereo not shown) [Compound 191],5 (Level 5: the growth inhibition rate is greater than 85%),5 (Level 5: the growth inhibition rate is greater than 85%),5 (Level 5: the growth inhibition rate is greater than 85%),5 (Level 5: the growth inhibition rate is greater than 85%),5 (Level 5: the growth inhibition rate is greater than 85%)
CC(=O)Nc1c(Cl)c(F)nc(OC(C)C(=O)OCc2ccccc2)c1Cl (stereo not shown) [Compound 192],5 (Level 5: the growth inhibition rate is greater than 85%),5 (Level 5: the growth inhibition rate is greater than 85%),5 (Level 5: the growth inhibition rate is greater than 85%),5 (Level 5: the growth inhibition rate is greater than 85%),5 (Level 5: the growth inhibition rate is greater than 85%)
CC(Oc1nc(F)c(Cl)c(NC(=O)c2ccccc2)c1Cl)C(=O)OCc1ccccc1 (stereo not shown) [Compound 194],5 (Level 5: the growth inhibition rate is greater than 85%),5 (Level 5: the growth inhibition rate is greater than 85%),5 (Level 5: the growth inhibition rate is greater than 85%),5 (Level 5: the growth inhibition rate is greater than 85%),5 (Level 5: the growth inhibition rate is greater than 85%)
CC(Oc1nc(F)c(Cl)c(NCc2ccccc2)c1Cl)C(=O)OCc1ccccc1 (stereo not shown) [Compound 195],5 (Level 5: the growth inhibition rate is greater than 85%),5 (Level 5: the growth inhibition rate is greater than 85%),5 (Level 5: the growth inhibition rate is greater than 85%),5 (Level 5: the growth inhibition rate is greater than 85%),5 (Level 5: the growth inhibition rate is greater than 85%)
Cc1cccc(COC(=O)C(C)Oc2nc(F)c(Cl)c(N)c2Cl)c1 (stereo not shown) [Compound 196],5 (Level 5: the growth inhibition rate is greater than 85%),5 (Level 5: the growth inhibition rate is greater than 85%),5 (Level 5: the growth inhibition rate is greater than 85%),5 (Level 5: the growth inhibition rate is greater than 85%),5 (Level 5: the growth inhibition rate is greater than 85%)
Cc1ccc(COC(=O)C(C)Oc2nc(F)c(Cl)c(N)c2Cl)cc1 (stereo not shown) [Compound 197],5 (Level 5: the growth inhibition rate is greater than 85%),5 (Level 5: the growth inhibition rate is greater than 85%),5 (Level 5: the growth inhibition rate is greater than 85%),5 (Level 5: the growth inhibition rate is greater than 85%),5 (Level 5: the growth inhibition rate is greater than 85%)
CC(Oc1nc(F)c(Cl)c(N)c1Cl)C(=O)OCc1cccc(F)c1 (stereo not shown) [Compound 198],5 (Level 5: the growth inhibition rate is greater than 85%),5 (Level 5: the growth inhibition rate is greater than 85%),5 (Level 5: the growth inhibition rate is greater than 85%),5 (Level 5: the growth inhibition rate is greater than 85%),5 (Level 5: the growth inhibition rate is greater than 85%)
CC(Oc1nc(F)c(Cl)c(N)c1Cl)C(=O)OCc1ccc(F)cc1 (stereo not shown) [Compound 199],5 (Level 5: the growth inhibition rate is greater than 85%),5 (Level 5: the growth inhibition rate is greater than 85%),5 (Level 5: the growth inhibition rate is greater than 85%),5 (Level 5: the growth inhibition rate is greater than 85%),5 (Level 5: the growth inhibition rate is greater than 85%)
CC(Oc1nc(F)c(Cl)c(N)c1Cl)C(=O)OCc1ccccc1C#N (stereo not shown) [Compound 200],5 (Level 5: the growth inhibition rate is greater than 85%),5 (Level 5: the growth inhibition rate is greater than 85%),5 (Level 5: the growth inhibition rate is greater than 85%),5 (Level 5: the growth inhibition rate is greater than 85%),5 (Level 5: the growth inhibition rate is greater than 85%)
CC(Oc1nc(F)c(Cl)c(N)c1Cl)C(=O)OCc1cccc(C#N)c1 (stereo not shown) [Compound 201],5 (Level 5: the growth inhibition rate is greater than 85%),5 (Level 5: the growth inhibition rate is greater than 85%),5 (Level 5: the growth inhibition rate is greater than 85%),5 (Level 5: the growth inhibition rate is greater than 85%),5 (Level 5: the growth inhibition rate is greater than 85%)
CC(Oc1nc(F)c(Cl)c(N)c1Cl)C(=O)OCc1ccccc1Cl (stereo not shown) [Compound 202],5 (Level 5: the growth inhibition rate is greater than 85%),5 (Level 5: the growth inhibition rate is greater than 85%),5 (Level 5: the growth inhibition rate is greater than 85%),5 (Level 5: the growth inhibition rate is greater than 85%),5 (Level 5: the growth inhibition rate is greater than 85%)
CC(Oc1nc(F)c(Cl)c(N)c1Cl)C(=O)OCc1cccc(Cl)c1 (stereo not shown) [Compound 203],5 (Level 5: the growth inhibition rate is greater than 85%),5 (Level 5: the growth inhibition rate is greater than 85%),5 (Level 5: the growth inhibition rate is greater than 85%),5 (Level 5: the growth inhibition rate is greater than 85%),5 (Level 5: the growth inhibition rate is greater than 85%)
